The text below walks through data of US20260258032A1, “TYROSINE KINASE 2 INHIBITORS AND USES THEREOF” (BIOGEN MA INC., priority 2022, published 2026).

Structures are written as SMILES. Counter-ions that a name gives are not always drawn. Bounds are passed on as bounds.

Assay [1] deals with Tyk2 kinase activity on STAT4. Kind of assay: pSTAT4 cell assay (MSD, NK92 cells). The following applies: compounds 1 hr. It counts as cell-based. The essentials:
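Compound treatment of starved NK92 cells ran 1 hr before a 15-minute, 30 ng/mL IL2 pulse; lysates went to an MSD anti-STAT4 antibody assay, with curves fitted by 4-parameter logistic model.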

The next assay addresses T1, JH2 domain of human Tyk2 (Homo sapiens, UniProt P29597).
T1 construct: 10×His-tagged TYK2 JH2 domain (amino acid 575-876)
Put plainly: JH2 biochemical assay (TR-FRET probe displacement). It counts as binding. The essentials: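 A probe-displacement TR-FRET readout: compounds, tested in 3-fold, 10-point dilutions starting at […], compete with 2 nM tracer for 2 nM His-tagged JH2 (residues 575-876) detected by 0.1 nM Tb-anti-His over 60 min. IC50 comes from 4-parameter fits of normalized 520/495 nm ratios.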
Background: Time-resolved FRET reads energy transfer from a long-lived donor to a nearby acceptor.

T1 sequence (P29597 575-876): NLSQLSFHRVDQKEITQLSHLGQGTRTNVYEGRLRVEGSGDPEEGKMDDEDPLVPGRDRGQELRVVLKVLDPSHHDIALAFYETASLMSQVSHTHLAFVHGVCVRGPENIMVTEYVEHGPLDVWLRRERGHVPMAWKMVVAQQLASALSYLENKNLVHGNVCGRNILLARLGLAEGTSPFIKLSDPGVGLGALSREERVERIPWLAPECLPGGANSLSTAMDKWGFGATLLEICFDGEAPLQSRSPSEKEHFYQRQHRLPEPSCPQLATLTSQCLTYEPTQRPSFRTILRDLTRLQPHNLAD

The term IC50 denotes the concentration needed to halve the response being measured. A lower IC50 goes with higher potency. In the case of `CC(=O)Nc1cc2c(cn1)C1(CC1)CN2c1cc(C(C)(F)F)ncn1` [Example 280, N-(1′-(6-(1,1-difluoroethyl)pyrimidin-4-yl)-1′,2′-dihydrospiro[cyclopropane-1,3′-pyrrolo[3,2-c]pyridin]-6′-yl)acetamide], the half-maximal inhibitory concentration (IC50) in assay [1] (stimulated 15 minutes) is at least 1000 nM; at JH2 domain of human Tyk2 (JH2 biochemical assay), 100 to 1000 nM.
`CC(=O)Nc1cc2c(cn1)C1(CC1)CN2c1cc(C)nc(N2CC[C@@H](C#N)C2)n1` [Example 407, (R)-N-(1′-(2-(3-cyanopyrrolidin-1-yl)-6-methylpyrimidin-4-yl)-1′,2′-dihydrospiro[cyclopropane-1,3′-pyrrolo[3,2-c]pyridin]-6′-yl)acetamide]: the IC50 in assay [1] (then stimulated 15 minutes) was 100 to 1000 nM; at JH2 domain of human Tyk2 (TR-FRET probe displacement, JH2 domain of human Tyk2) it was at most 10 nM.
With `CC(=O)Nc1cc2c(cn1)C1(CC1)CN2c1cc(C)cc(OC2CC(O)C2)n1` (centres unmarked) [Example 342, N-(1′-(6-(3-hydroxycyclobutoxy)-4-methylpyridin-2-yl)-1′,2′-dihydrospiro[cyclopropane-1,3′-pyrrolo[3,2-c]pyridin]-6′-yl)acetamide], the IC50 in assay [1] (stimulated 15 minutes) is at least 1000 nM; at JH2 domain of human Tyk2 (JH2 biochemical assay), 100 to 1000 nM.
`CC(=O)Nc1cc2c(cn1)C1(CC1)CN2c1cc(NC[C@H]2CCO2)nc(C(C)(F)F)n1` [Example 162, (R)-N-(1′-(2-(1,1-difluoroethyl)-6-((oxetan-2-ylmethyl)amino)pyrimidin-4-yl)-1′,2′-dihydrospiro[cyclopropane-1,3′-pyrrolo[3,2-c]pyridin]-6′-yl)acetamide]: the IC50 in assay [1] (stimulated 15 minutes) is 10 to 100 nM; on JH2 domain of human Tyk2 (JH2 biochemical assay) it was at most 10 nM.
In the case of `CC(=O)Nc1cc2c(cn1)C1(CC1)CN2c1cc(C)nc(N2CC(O)C2)n1` [Example 237, N-(1′-(2-(3-hydroxyazetidin-1-yl)-6-methylpyrimidin-4-yl)-1′,2′-dihydrospiro[cyclopropane-1,3′-pyrrolo[3,2-c]pyridin]-6′-yl)acetamide], the IC50 in assay [1] (stimulated 15 minutes) was at least 1000 nM; at JH2 domain of human Tyk2 (JH2 biochemical assay), 10 to 100 nM.
`CC(=O)Nc1cc2c(cn1)C1(CC1)CN2c1nc(C)nc(C)c1F` [Example 67, N-(1′-(5-fluoro-2,6-dimethylpyrimidin-4-yl)-1′,2′-dihydrospiro[cyclopropane-1,3′-pyrrolo[3,2-c]pyridin]-6′-yl)acetamide]: the IC50 in assay [1] (stimulated 15 minutes) is at least 1000 nM; at JH2 domain of human Tyk2 (JH2 biochemical assay) it was 100 to 1000 nM.
For `COC1CC(Oc2cc(N3CC4(CC4)c4cnc(NC(C)=O)cc43)nc(C(C)(F)F)n2)C1` (centres unmarked) [Example 5, N-(1′-(2-(1,1-difluoroethyl)-6-(3-methoxycyclobutoxy)pyrimidin-4-yl)-1′,2′-dihydrospiro[cyclopropane-1,3′-pyrrolo[3,2-c]pyridin]-6′-yl)acetamide], in that order: 10 to 100 nM and at most 10 nM.
As to `CC(=O)Nc1cc2c(cn1)C1(CC1)CN2c1cc(C)nc(S(C)(=O)=O)n1` [Example 136, N-(1′-(6-methyl-2-(methylsulfonyl)pyrimidin-4-yl)-1′,2′-dihydrospiro[cyclopropane-1,3′-pyrrolo[3,2-c]pyridin]-6′-yl)acetamide], the IC50 is 10 to 100 nM in assay [1] (stimulated 15 minutes) and at most 10 nM at JH2 domain of human Tyk2 (JH2 biochemical assay).
As for `CC(=O)Nc1cc2c(cn1)C1(CC1)CN2c1cc(C)nc(OC2CC(F)C2)n1` (centres unmarked) [Example 370, N-(1′-(2-(3-fluorocyclobutoxy)-6-methylpyrimidin-4-yl)-1′,2′-dihydrospiro[cyclopropane-1,3′-pyrrolo[3,2-c]pyridin]-6′-yl)acetamide], the IC50 in assay [1] (stimulated 15 minutes) is at least 1000 nM; at JH2 domain of human Tyk2 (JH2 biochemical assay), 100 to 1000 nM.
Taken in the same sequence, the figures for `COCCOc1nc(N2CC3(CC3)c3cnc(NC(C)=O)cc32)cc(C(C)(F)F)n1` [Example 287, N-(1′-(6-(1,1-difluoroethyl)-2-(2-methoxyethoxy)pyrimidin-4-yl)-1′,2′-dihydrospiro[cyclopropane-1,3′-pyrrolo[3,2-c]pyridin]-6′-yl)acetamide] were 100 to 1000 nM and at most 10 nM.
Taken in the same sequence, the figures for `CC(=O)Nc1cc2c(cn1)C1(CC1)CN2c1cc(C)nc(N2CCC(F)(F)C2)n1` [Example 229, N-(1′-(2-(3,3-difluoropyrrolidin-1-yl)-6-methylpyrimidin-4-yl)-1′,2′-dihydrospiro[cyclopropane-1,3′-pyrrolo[3,2-c]pyridin]-6′-yl)acetamide] were 100 to 1000 nM and at most 10 nM.
Taken in the same sequence, the figures for `CO[C@@H](C)[C@H](C)Nc1cc(N2CC3(CC3)c3cnc(NC(C)=O)cc32)nc(C(C)(F)F)n1` [Example 165, N-(1′-(2-(1,1-difluoroethyl)-6-(((2S,3S)-3-methoxybutan-2-yl)amino)pyrimidin-4-yl)-1′,2′-dihydrospiro[cyclopropane-1,3′-pyrrolo[3,2-c]pyridin]-6′-yl)acetamide trifluoroacetate] were 10 to 100 nM and at most 10 nM.
As for `CC(=O)Nc1cc2c(cn1)C1(CC1)CN2c1cc(-c2cnn(C)c2C)nc(C(C)(F)F)n1` [Example 240, N-(1′-(2-(1,1-difluoroethyl)-6-(1,5-dimethyl-1H-pyrazol-4-yl)pyrimidin-4-yl)-1′,2′-dihydrospiro[cyclopropane-1,3′-pyrrolo[3,2-c]pyridin]-6′-yl)acetamide trifluoroacetate], the results for the IC50 (in assay [1] (stimulated 15 minutes); on JH2 domain of human Tyk2 (JH2 biochemical assay)) were 10 to 100 nM and at most 10 nM, respectively.
`COC1(C(=O)C2CC2)CCN(c2nc(C)cc(N3CC4(CC4)c4cnc(NC(C)=O)cc43)n2)CC1` [Example 231, N-(1′-(2-(4-(cyclopropanecarbonyl)-4-methoxypiperidin-1-yl)-6-methylpyrimidin-4-yl)-1′,2′-dihydrospiro[cyclopropane-1,3′-pyrrolo[3,2-c]pyridin]-6′-yl)acetamide trifluoroacetate]: the IC50 was at least 1000 nM in assay [1] (stimulated 15 minutes) and 100 to 1000 nM at JH2 domain of human Tyk2 (JH2 biochemical assay).
Taken in the same sequence, the figures for `COCCOc1cc(N2CC3(CC3)c3cnc(NC(C)=O)cc32)nc(C(C)(F)F)n1` [Example 4, N-(1′-(2-(1,1-difluoroethyl)-6-(2-methoxyethoxy)pyrimidin-4-yl)-1′,2′-dihydrospiro[cyclopropane-1,3′-pyrrolo[3,2-c]pyridin]-6′-yl)acetamide] were 100 to 1000 nM and at most 10 nM.
Regarding `COC1(COc2cc(C)cc(N3CC4(CC4)c4cnc(NC(C)=O)cc43)n2)CCC1` [Example 351, N-(1′-(6-((1-methoxycyclobutyl)methoxy)-4-methylpyridin-2-yl)-1′,2′-dihydrospiro[cyclopropane-1,3′-pyrrolo[3,2-c]pyridin]-6′-yl)acetamide], the IC50 in assay [1] (stimulated 15 minutes) was at least 1000 nM; at JH2 domain of human Tyk2 (JH2 biochemical assay), 100 to 1000 nM.
Taken in the same sequence, the figures for `COCCCc1nc(C)cc(N2CC3(CC3)c3cnc(NC(C)=O)cc32)n1` [Example 71, N-(1′-(2-(3-methoxypropyl)-6-methylpyrimidin-4-yl)-1′,2′-dihydrospiro[cyclopropane-1,3′-pyrrolo[3,2-c]pyridin]-6′-yl)acetamide] were at least 1000 nM and 10 to 100 nM.
Taken in the same sequence, the figures for `CC(=O)Nc1cc2c(cn1)C1(CC1)CN2c1cc(C(=O)O)nc(C(C)(F)F)n1` [Example 294, 6-(6′-acetamidospiro[cyclopropane-1,3′-pyrrolo[3,2-c]pyridin]-1′(2′H)-yl)-2-(1,1-difluoroethyl)pyrimidine-4-carboxylic acid] were at least 1000 nM and 10 to 100 nM.
For `COC(C)(C)COc1cc(C)cc(N2CC3(CC3)c3cnc(NC(C)=O)cc32)n1` [Example 336, N-(1′-(6-(2-methoxy-2-methylpropoxy)-4-methylpyridin-2-yl)-1′,2′-dihydrospiro[cyclopropane-1,3′-pyrrolo[3,2-c]pyridin]-6′-yl)acetamide trifluoroacetate], in that order: at least 1000 nM and 100 to 1000 nM.
